Data reported in ChEMBL document CHEMBL4831545, “Hormesis Effect of Berberine against Klebsiella pneumoniae Is Mediated by Up-Regulation of the Efflux Pump KmrA” (J Nat Prod, 2021).

How the values were obtained:
Acinetobacter baumannii [1] = assay: Hormesis activity against Acinetobacter baumannii assessed as increase in antibiotic MIC by measuring ciprofloxacin MIC at 3 ug/ml incubated for 12 hrs by OD600 based analysis (reference value: 0.3125 ug/ml); format: ADME, organism-based; conditions: in vivo, dose 3 µg/ml
Klebsiella pneumoniae [2] = assay: Hormesis activity against overnight compound-treated Klebsiella pneumoniae deficient in KmrA gene expression assessed as increase in antibiotic MIC by measuring meropenem MIC at 3 ug/ml incubated for 12 hrs by OD600 based analysis (reference value: 0.39625 ug/ml); format: ADME, organism-based; conditions: in vivo, dose 3 µg/ml
Klebsiella pneumoniae [3] = assay: Hormesis activity against overnight compound-treated Klebsiella pneumoniae assessed as increase in antibiotic MIC by measuring chloramphenicol MIC at 3 ug/ml incubated for 12 hrs by OD600 based analysis (reference value: 6.25 ug/ml); format: ADME, organism-based; conditions: in vivo, dose 3 µg/ml
Acinetobacter baumannii [4] = assay: Hormesis activity against overnight-compound treated Acinetobacter baumannii assessed as increase in antibiotic MIC by measuring tetracycline MIC at 3 ug/ml incubated for 12 hrs by OD600 based analysis (reference value: 240 ug/ml); format: ADME, organism-based; conditions: in vivo, dose 3 µg/ml
Klebsiella pneumoniae [5] = assay: Hormesis activity against overnight compound-treated Klebsiella pneumoniae deficient in KmrA gene expression assessed as increase in antibiotic MIC by measuring tetracycline MIC at 3 ug/ml incubated for 12 hrs by OD600 based analysis (reference value: 6 ug/ml); format: ADME, organism-based; conditions: in vivo, dose 3 µg/ml
Acinetobacter baumannii [6] = assay: Hormesis activity against overnight-compound treated Acinetobacter baumannii assessed as increase in antibiotic MIC by measuring streptomycin MIC at 3 ug/ml incubated for 12 hrs by OD600 based analysis (reference value: 400 ug/ml); format: ADME, organism-based; conditions: in vivo, dose 3 µg/ml
Klebsiella pneumoniae [7] = assay: Hormesis activity against Klebsiella pneumoniae assessed as promotion of bacterial growth at 3 to 6 ug/ml measured for 24 hrs in presence of efflux pump inhibitor, CCCP and 1 to 2 ug/ml tetracycline by OD600 based analysis; format: ADME, organism-based; conditions: in vivo, dose 3-6 µg/ml
Enterobacter cloacae [8] = assay: Hormesis activity against Enterobacter cloacae assessed as increase in antibiotic MIC by measuring rifampicin MIC at 3 ug/ml incubated for 12 hrs by OD600 based analysis (reference value: 25 ug/ml); format: ADME, organism-based; conditions: in vivo, dose 3 µg/ml
Acinetobacter baumannii [9] = assay: Hormesis activity against overnight-compound treated Acinetobacter baumannii assessed as increase in antibiotic MIC by measuring ciprofloxacin MIC at 3 ug/ml incubated for 12 hrs by OD600 based analysis (reference value: 0.3125 ug/ml); format: ADME, organism-based; conditions: in vivo, dose 3 µg/ml
Klebsiella pneumoniae [10] = assay: Hormesis activity against overnight compound-treated Klebsiella pneumoniae deficient in KmrA gene expression assessed as increase in antibiotic MIC by measuring chloramphenicol MIC at 3 ug/ml incubated for 12 hrs by OD600 based analysis (reference value: 6.25 ug/ml); format: ADME, organism-based; conditions: in vivo, dose 3 µg/ml
Enterobacter cloacae [11] = assay: Hormesis activity against Enterobacter cloacae assessed as increase in antibiotic MIC by measuring ciprofloxacin MIC at 3 ug/ml incubated for 12 hrs by OD600 based analysis (reference value: 0.0390625 ug/ml); format: ADME, organism-based; conditions: in vivo, dose 3 µg/ml
Klebsiella pneumoniae [12] = assay: Hormesis activity against overnight compound-treated Klebsiella pneumoniae deficient in KmrA gene expression assessed as increase in antibiotic MIC by measuring atreonamMIC at 3 ug/ml incubated for 12 hrs by OD600 based analysis (reference value: 1.5625 ug/ml); format: ADME, organism-based; conditions: in vivo, dose 3 µg/ml
Acinetobacter baumannii [13] = assay: Hormesis activity against Acinetobacter baumannii assessed as increase in antibiotic MIC by measuring rifampicin MIC at 3 ug/ml incubated for 12 hrs by OD600 based analysis (reference value: 1.5625 ug/ml); format: ADME, organism-based; conditions: in vivo, dose 3 µg/ml
Acinetobacter baumannii [14] = assay: Hormesis activity against overnight-compound treated Acinetobacter baumannii assessed as increase in antibiotic MIC by measuring atreonamMIC at 3 ug/ml incubated for 12 hrs by OD600 based analysis (reference value: 6.25 ug/ml); format: ADME, organism-based; conditions: in vivo, dose 3 µg/ml
Klebsiella pneumoniae [15] = assay: Hormesis activity against Klebsiella pneumoniae deficient in KmrA gene expression assessed as increase in antibiotic MIC by measuring chloramphenicol MIC at 3 ug/ml incubated for 12 hrs by OD600 based analysis (reference value: 6.25 ug/ml); format: ADME, organism-based; conditions: in vivo, dose 3 µg/ml
Acinetobacter baumannii [16] = assay: Hormesis activity against overnight-compound treated Acinetobacter baumannii assessed as increase in antibiotic MIC by measuring azithromycin MIC at 3 ug/ml incubated for 12 hrs by OD600 based analysis (reference value: 200 ug/ml); format: ADME, organism-based; conditions: in vivo, dose 3 µg/ml
Enterobacter cloacae [17] = assay: Hormesis activity against overnight compound-treated Enterobacter cloacae assessed as increase in antibiotic MIC by measuring atreonamMIC at 3 ug/ml incubated for 12 hrs by OD600 based analysis (reference value: 3.125 ug/ml); format: ADME, organism-based; conditions: in vivo, dose 3 µg/ml
Klebsiella pneumoniae [18] = assay: Hormesis activity against Klebsiella pneumoniae deficient in KmrA gene expression assessed as increase in antibiotic MIC by measuring cefotaxime MIC at 3 ug/ml incubated for 12 hrs by OD600 based analysis (reference value: 0.39625 ug/ml); format: ADME, organism-based; conditions: in vivo, dose 3 µg/ml
Klebsiella pneumoniae [19] = assay: Hormesis activity against overnight compound-treated Klebsiella pneumoniae assessed as increase in antibiotic MIC by measuring rifampicin MIC at 3 ug/ml incubated for 12 hrs by OD600 based analysis (reference value: 25 ug/ml); format: ADME, organism-based; conditions: in vivo, dose 3 µg/ml
Enterobacter cloacae [20] = assay: Hormesis activity against overnight compound-treated Enterobacter cloacae assessed as increase in antibiotic MIC by measuring ampicillin MIC at 3 ug/ml incubated for 12 hrs by OD600 based analysis (reference value: 25 ug/ml); format: ADME, organism-based; conditions: in vivo, dose 3 µg/ml
Klebsiella pneumoniae [21] = assay: Hormesis activity against Klebsiella pneumonia assessed as promotion of bacterial growth at 3 to 50 ug/ml measured for 24 hrs in presence of 4 ug/ml tetracycline by OD600 based analysis; format: organism-based; conditions: in vivo, dose 3-50 µg/ml
Klebsiella pneumoniae [22] = assay: Hormesis activity against overnight compound-treated Klebsiella pneumoniae deficient in KmrA gene expression assessed as increase in antibiotic MIC by measuring rifampicin MIC at 3 ug/ml incubated for 12 hrs by OD600 based analysis (reference value: 25 ug/ml); format: ADME, organism-based; conditions: in vivo, dose 3 µg/ml
Klebsiella pneumoniae [23] = assay: Hormesis activity against overnight compound-treated Klebsiella pneumoniae assessed as increase in antibiotic MIC by measuring ampicillin MIC at 3 ug/ml incubated for 12 hrs by OD600 based analysis (reference value: 12.5 ug/ml); format: ADME, organism-based; conditions: in vivo, dose 3 µg/ml
Klebsiella pneumoniae [24] = assay: Hormesis activity against overnight compound-treated Klebsiella pneumoniae deficient in KmrA gene expression assessed as increase in antibiotic MIC by measuring ciprofloxacin MIC at 3 ug/ml incubated for 12 hrs by OD600 based analysis (reference value: 0.0390625 ug/ml); format: ADME, organism-based; conditions: in vivo, dose 3 µg/ml
Klebsiella pneumoniae [25] = assay: Hormesis activity against Klebsiella pneumoniae assessed as increase in antibiotic MIC by measuring cefotaxime MIC at 3 ug/ml incubated for 12 hrs by OD600 based analysis (reference value: 0.39625 ug/ml); format: ADME, organism-based; conditions: in vivo, dose 3 µg/ml
Enterobacter cloacae [26] = assay: Hormesis activity against Enterobacter cloacae assessed as increase in antibiotic MIC by measuring azithromycin MIC at 3 ug/ml incubated for 12 hrs by OD600 based analysis (reference value: 6.25 ug/ml); format: ADME, organism-based; conditions: in vivo, dose 3 µg/ml
Klebsiella pneumoniae [27] = assay: Hormesis activity against overnight compound-treated Klebsiella pneumoniae deficient in KmrA gene expression assessed as increase in antibiotic MIC by measuring ampicillin MIC at 3 ug/ml incubated for 12 hrs by OD600 based analysis (reference value: 12.5 ug/ml); format: ADME, organism-based; conditions: in vivo, dose 3 µg/ml
[28] = Upregulation of efflux pump regulator promoter activity in Klebsiella pneumoniae assessed as increase in beta-galactosidase activity at 50 ug/ml by LacZ based OD600 analysis relative to control; format: ADME; conditions: dose 50 µg/ml

## COc1ccc2cc3[n+](cc2c1OC)CCc1cc2c(cc1-3)OCO2 [BERBERINE]
Acinetobacter baumannii [1]
  MIC: 0.3125 µg/mL
Klebsiella pneumoniae [2]
  MIC: 0.3962 µg/mL
Klebsiella pneumoniae [3]
  MIC: 6.25 µg/mL
Acinetobacter baumannii [4]
  MIC: 360 µg/mL
Klebsiella pneumoniae [5]
  MIC: 6 µg/mL
Acinetobacter baumannii [6]
  MIC: 400 µg/mL
Klebsiella pneumoniae [7]
  Activity: Non-Toxic
Enterobacter cloacae [8]
  MIC: 25 µg/mL
Acinetobacter baumannii [9]
  MIC: 0.625 µg/mL
Klebsiella pneumoniae [10]
  MIC: 6.25 µg/mL
Enterobacter cloacae [11]
  MIC: 0.07812 µg/mL
Klebsiella pneumoniae [12]
  MIC: 1.5625 µg/mL
Acinetobacter baumannii [13]
  MIC: 3.125 µg/mL
Acinetobacter baumannii [14]
  MIC: 6.25 µg/mL
Klebsiella pneumoniae [15]
  MIC: 6.25 µg/mL
Acinetobacter baumannii [16]
  MIC: 400 µg/mL
Enterobacter cloacae [17]
  MIC: 3.125 µg/mL
Klebsiella pneumoniae [18]
  MIC: 0.3962 µg/mL
Klebsiella pneumoniae [19]
  MIC: 50 µg/mL
Enterobacter cloacae [20]
  MIC: 50 µg/mL
Klebsiella pneumoniae [21]
  Activity: Toxic
Klebsiella pneumoniae [22]
  MIC: 25 µg/mL
Klebsiella pneumoniae [23]
  MIC: 12.5 µg/mL
Klebsiella pneumoniae [24]
  MIC: 0.07812 µg/mL
Klebsiella pneumoniae [25]
  MIC: 0.3962 µg/mL
Enterobacter cloacae [26]
  MIC: 6.25 µg/mL
Klebsiella pneumoniae [27]
  MIC: 12.5 µg/mL
[28]
  fold change (FC): 2
